Measurements published in US4879212A, “Peptide composition and method for the detection of antibodies to HTLV-III” (United Biomedical Inc., priority 1987, dated 1989).
Ends that are not written are not given here.

Assays:
[1] = system: anti HTLV-III antibodies; experiment: Immunoreactivity of peptides at 1 ug per well in ELISA with pooled AIDS serum, relative to 21mer peptide; type: binding, human; settings: for Reactivity %: 1 ug per well, pooled AIDS serum sample, 21mer peptide set as 100%
Description: Various peptide analogs based on the above described amino acid sequence have been prepared. These analogs and their reactivities with the anti HTLV-III antibodies present in sera of AIDS and ARC patients are described in Example 8 and Table III. The reactivity in an ELISA test for the same amount of each peptide by weight per volume was compared with the reactivity of the 21mer peptide, which was assigned a reactivity of 100.
The 35mer peptide, 19mer peptide, 11mer peptide and eight analogues of the 21mer peptide, and overlapping 19mer peptide were prepared in their amide form according to the classical Merrifield method described herein above.
The immunoreactivity of the various peptides at 1 ug per well level was tested using a pooled AIDS serum sample. The reactivity of each peptide was compared with the reactivity of the 21mer peptide which was set as 100%.

[2] = system: antibodies to HTLV-III; type: binding, human; settings: screened out from over 500 HTLV III positive AIDS serum specimens
Method: Following the procedure described in Example 1, mixtures of the 21mer peptide with the 19mer peptide with various weight ratios, from 10:1.25 to 4:1, were used as the immunoadsorbent. The wells were coated with 1 ug of the mixture. The serum samples used were two samples from patients which had been diagnosed as positive for AIDS and two samples from patients with autoimmune diseases. The two AIDS positive samples were screened out from over 500 HTLV III positive AIDS serum specimens and had been showned to be negative in ELISA using only the 21mer peptide as the immunoadsorbent.

[3] = system: antibodies to HTLV-III
Description: A third problem which has plagued this area is the possibility of false negative results.
where A492 (RC) is the absorbance reading for the reactive control and A492 (NRC) is the absorbance reading for the non-reactive control.

[4] = system: antibodies to HTLV-III; settings: cited from earlier work

| Substance | Reactivity % [1] | immunoreactivity (in words) ([1]; observed from Table III) | ELISA result of the two AIDS positive samples [2] | serum samples positive by Western Blot Analysis giving negative results ([3]; 12 out of 449) | accuracy of the results ([3]; cutoff point=0.1xA492 (RC)+1xA492 (NRC)) | serum samples positive by Western Blot Analysis giving negative results, out of 449 ([3]; mostly at the later stage of AIDS) | immunoreactivity (in words) [4] |
| --- | --- | --- | --- | --- | --- | --- | --- |
| RILAVERYKLDQQLLGIWGCSGKLICTTAVPWNAS (cysteine pairing not given here) [Peptide 17] | 132.0% | highest immunoreactivity |  |  |  |  |  |
| Arg--Ile--Leu--Ala--Val--Glu--Arg--Tyr--Leu--Lys--Asp--Gln--Gln--Leu--Leu--Gly--Ile--Trp--Gly--Cys--Ser [Peptide 6] | 100% |  | negative | about 2.67% | about 98% | 12 |  |
| Arg-Ile-Leu-Ala-Val-Glu-Arg-Tyr-Leu-Lys-Asp-Gln-Gln-Leu--Leu-Gly-Ile-Trp-Gly-Cys-Ser-Gly-Lys-Leu-Ile-Cys-X |  |  |  |  |  |  | not as good as the deactivated virus |
